# Counter-ions that a name gives are not always drawn.
# Tested on: mouse melanoma cells (B16F10 cell line)
# Assay: Melanin inhibition assay
# Type: cell-based
# Settings: found through experimentation; H3 antagonists
# Method: The assays utilized mouse melanoma cells (B16F10 cell line) which are very efficient at producing melanin. Various inhibitors and enhancers of melanin synthesis were added to the cultured cells along with experimental samples.
# The B16F10 murine melanocytes were seeded into 24-well tissue culture plates and allowed to grow to confluency in complete DMEM. Solutions of H3 antagonists, Arbutin, alpha-Melanocyte Stimulating Hormone (a-MSH), and AA2G were prepared in Complete DMEM. Complete Dulbeco's Modified Eagle Media (DMEM) was used as the untreated control. Additionally, the individual components of the H3 antagonists, Yeast Peptide and Plant Extract, were also analyzed for melanogenic effects. Cells were treated for 72 hours.
# For the inhibition assay, the media was removed from the wells and the monolayers were washed with phosphate buffered saline (PBS). NaOH was added to each well and 100 μL of each solution were added to a 96-well plate in duplicate. The plate was measured by optical density readings at 400 nm.
# As discussed above, skin pigmentation is determined by the amount of melanin in the skin which is produced by […] melanocytes. In addition to the melanin inhibition study comparing the fermented plant abstract to AA2G, Arbutin, α-MSH, and Kojic acid, a melanin inhibition study was conducted to compare the fermented plant extract with its individual components—peptide from yeast and plant extract—to assess their ability to inhibit melanin synthesis. The melanin assay was conducted using the same methodogies as discussed above with respect to H3 antagonists, in general.
row,SMILES,suitability to reduce or eliminate pigmentation in a users skin
1,Br.Br.C[C@@H](N)Cc1c[nH]cn1 [(R)-(-)-a-Methylhistamine dihydrobromide],suitable for use as a by-product in cosmetics to reduce or eliminate pigmentation
2,C[C@H]1[C@H]2CC[C@H]3[C@@H]4CC=C5C[C@@H](N(C)C)CC[C@]5(C)[C@H]4CC[C@]23CN1C [Conessine],suitable for use as a by-product in cosmetics to reduce or eliminate pigmentation
3,N=C(N)SCCc1cnc[nH]1 [Imetit dihydrobromide],suitable for use as a by-product in cosmetics to reduce or eliminate pigmentation
4,NCCCCCc1cnc[nH]1 [Impentamine dihydrobromide],suitable for use as a by-product in cosmetics to reduce or eliminate pigmentation

# — patent publication US20150272863A1, “H3 ANTAGONIST BY-PRODUCT, ITS MANUFACTURE, AND METHOD OF USING BY-PRODUCT TO REDUCE PIGMENTATION IN SKIN” (Active Concepts, LLC, priority 2014, published 2015)
